Here are results for one substance from patent publication US7150974B1, “Parathyroid hormone receptor binding method” (The General Hospital Corporation, priority 1991, dated 2006).

“Also recorded” adds a separate entry of the source.

Assay [1] concerns the target T1, rat bone PTH/PTHrP receptor (Rattus norvegicus, UniProt P25961, E586G).
T1 construct: expressed in transfected cells; host or cells: COS / COS-7 cells, transient, plasmid R15B (pcDNA I)
T1 sequence (P25961 27-591 E586G): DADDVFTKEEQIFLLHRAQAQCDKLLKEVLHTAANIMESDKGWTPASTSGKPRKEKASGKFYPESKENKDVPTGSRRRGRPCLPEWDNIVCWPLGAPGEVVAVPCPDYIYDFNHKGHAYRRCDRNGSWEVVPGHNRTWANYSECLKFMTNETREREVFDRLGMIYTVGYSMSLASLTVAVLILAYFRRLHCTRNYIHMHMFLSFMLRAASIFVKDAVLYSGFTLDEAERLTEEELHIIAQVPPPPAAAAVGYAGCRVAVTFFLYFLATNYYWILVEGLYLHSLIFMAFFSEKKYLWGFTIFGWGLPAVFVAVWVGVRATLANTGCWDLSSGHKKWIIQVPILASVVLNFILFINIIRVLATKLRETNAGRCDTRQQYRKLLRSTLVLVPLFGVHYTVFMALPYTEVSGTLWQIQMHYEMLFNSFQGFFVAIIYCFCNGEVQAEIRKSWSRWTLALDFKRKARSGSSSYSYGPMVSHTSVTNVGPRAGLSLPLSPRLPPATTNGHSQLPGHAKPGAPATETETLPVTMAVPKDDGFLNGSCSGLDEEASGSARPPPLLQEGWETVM
Put plainly: Radioreceptor assay, COS cells expressing rat bone PTH/PTHrP receptor (R15B). In kind it is binding. As for the experimental part:
In brief, the labeled peptide was dissolved in 0.1% trifluoracetic acid (TFA), applied to a C18 Sep-pak cartridge (Waters Associates, Inc., Milford, Mass.) and eluted with a solution of 60% acetonitrile in 0.1% TFA. After lyophilization, the radioligand then was applied to C18-μBondapak column (3.9 mm×30 cm. Waters Associates) and eluted over 30 min with a linear gradient of 30-50% acetonitrile-0.1% TFA at a flow rate of 2 ml/min.
COS-7 cells were grown in 15 cm plates in DMEM, 10% heat-inactivated […], 10 mg/L gentamycin until 80-90% confluent. Twenty-four hours after transfection by the DEAE/Dextran method (Sambrook et al., supra), with 1-2 μg of plasmid DNA, the cells were trypsinized and replated in multiwell plastic dishes (16 or 35 mm diameter, Costar, Cambridge, Mass.) at a cell concentration of 5×10^4 cells/cm^2). […] After continuing culture for another 48 h, radiorecepter assays were performed. The culture medium was replaced with buffer containing 50 mM Tris-HCL (pH 7.7), 100 mM NaCl, 2 mM CaCl2, 5 mM KCL, 0.5% heat-inactivated fetal bovine serum (GIBCO), and 5% heat-inactivated horse serum (KC Biological Inc., Lenexa, Kans.) immediately before studies were initiated.
Incubations were terminated by aspirating the buffer, and repeatedly (×3) washing the culture dishes, containing the adherent cells with chilled 0.9% NaCl solution, over a 15 sec period. Cell-bound radioactivity was recovered by the sequential addition (×3) of 1 N NaOH (200 μl) to each well. After 30 min at room temperature, the NaOH was transferred to a glass tube. A second and third extraction with 1 N NaOH (200 μl) were combined with the first, and the total radioactivity was counted in a γ-spectrometer (Packard Instruments, Downers Grove, Ill.).

The target of assay [2] is T2, opossum kidney PTH/PTHrP receptor clone, OK-H (Didelphis virginiana, UniProt P25107, I132F/S86P).
T2 construct: expressed in transfected cells; host or cells: COS cells, transient, plasmid OK-H (pcDNA I)
Nature of the assay: Inositol phosphate metabolism, COS cells expressing OK-H. The assay is classed as cell-based. The conditions noted are these: FIG. 15, listed as NlePTH.

The target in assay [3] is T3, opossum kidney PTH/PTHrp receptor clone, OK-O (Didelphis virginiana, UniProt P25107, I132F/S86P).
T3 construct: expressed in transfected cells; host or cells: COS cells, transient, plasmid OK-O (pcDNA I)
Put plainly: Inositol phosphate metabolism, COS cells expressing OK-O. The assay is classed as cell-based. The conditions noted are these: FIG. 15, listed as NlePTH.

The target in assay [4] is T2, opossum kidney PTH/PTHrP receptor clone, OK-H. Put plainly: cAMP accumulation, COS cells expressing OK-H. In kind it is cell-based. The note with it: FIG. 16. As for the experimental part:
Intracellular cAMP accumulation was measured as described previously (Abou-Samra et al., J. Biol. Chem. 262:1129, 1986). Cells in 24-well plates were rinsed with culture medium containing 0.1% BSA and 2 mM IBMX. The cells were then incubated with PTH or PTHrP for 15 min. at 37° C. The supernatant was removed and the cells immediately frozen by placing the whole plate in dry ice powder. Intracellular cAMP was extracted by thawing the cells in 1 ml of 50 mM HCl and analyzed by a specific radioimmunoassay using an anti-cAMP antibody (e.g., Sigma, St. Louis, Mo.). A cAMP analog (2′-O-monosuccinyl-adenosine 3′:5′-cyclic monophosphate tyrosyl methyl ester, obtained from Sigma) which was used a tracer for cAMP was iodinated by the chloramine T method. Free iodine was removed by adsorbing the iodinated cAMP analog onto a C18 Sep-pak cartridge (Waters, Milford, Mass.). After washing with dH2O, the iodinated cAMP analog was eluted from the Sep-pak Cartridge with 40% acetonitrille (ACN) and 0.1% trifluoroacetic acid (TFA). The iodinated cAMP analog was lyophilized, reconstituted in 1 ml 0.1% TFA, and injected into a C18 reverse phase HPLC column (Waters). […] The supernatant was removed and the bound radioactivity was counted in a γ-counter (Micromedic). Standard curves were calculated using the four-parameter RIA program supplied by Micromedic. […]

T2 sequence (P25107 other isoform, or with tags, fused parts or gaps S86P/I132F): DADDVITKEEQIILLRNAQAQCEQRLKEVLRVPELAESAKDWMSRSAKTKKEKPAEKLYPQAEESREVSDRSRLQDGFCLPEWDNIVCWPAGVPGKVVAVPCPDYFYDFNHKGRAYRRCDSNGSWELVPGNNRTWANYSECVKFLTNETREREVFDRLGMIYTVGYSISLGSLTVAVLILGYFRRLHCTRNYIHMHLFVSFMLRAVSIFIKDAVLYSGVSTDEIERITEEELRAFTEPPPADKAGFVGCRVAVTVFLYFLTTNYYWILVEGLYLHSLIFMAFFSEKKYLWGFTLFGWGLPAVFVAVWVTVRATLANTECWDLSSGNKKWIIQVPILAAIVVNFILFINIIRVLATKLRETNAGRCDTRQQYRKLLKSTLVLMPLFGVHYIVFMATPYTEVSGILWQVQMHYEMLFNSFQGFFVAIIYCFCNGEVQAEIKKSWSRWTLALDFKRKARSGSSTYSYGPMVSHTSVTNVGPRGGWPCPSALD
T3 sequence (P25107 27-585 S86P/I132F): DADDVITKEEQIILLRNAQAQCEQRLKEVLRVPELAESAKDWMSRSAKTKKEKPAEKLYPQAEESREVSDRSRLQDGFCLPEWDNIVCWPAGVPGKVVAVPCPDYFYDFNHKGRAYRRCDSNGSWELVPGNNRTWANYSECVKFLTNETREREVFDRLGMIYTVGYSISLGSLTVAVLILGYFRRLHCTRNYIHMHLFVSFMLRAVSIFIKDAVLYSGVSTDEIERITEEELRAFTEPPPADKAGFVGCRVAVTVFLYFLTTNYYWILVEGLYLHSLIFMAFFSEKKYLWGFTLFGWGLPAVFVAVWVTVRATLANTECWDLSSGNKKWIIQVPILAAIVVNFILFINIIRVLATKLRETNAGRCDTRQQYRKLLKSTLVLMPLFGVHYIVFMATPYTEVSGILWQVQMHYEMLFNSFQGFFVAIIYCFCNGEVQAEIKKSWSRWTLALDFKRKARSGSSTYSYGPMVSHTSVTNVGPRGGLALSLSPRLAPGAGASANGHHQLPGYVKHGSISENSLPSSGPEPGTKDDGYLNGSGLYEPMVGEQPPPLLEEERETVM

Take [Nle^8,18, Tyr^34]bPTH(1-34)amide: in assay [1] (COS cells expressing R15B, FIG. 13), the “inhibition of 125I-PTHrP binding by competitor” value is listed as “inhibited”. In addition, in assay [1] (radiolabelled ligand ~200,000 cpm, COS-7 cells expressing R15B), the “specific binding of radiolabelled ligand” value is on record as 8.1 ± 3.5%. In addition, the “inositol phosphate metabolism (IP3 and IP2 accumulation)” value in assay [2] is on record as “do not show a detectable increase; also recorded: did not show any detectable increase”; in assay [3], “rapid increase”. Besides, in assay [4], the cAMP accumulation result was “increase cAMP accumulation”.
